# Data published in patent publication US10647680B2, “Urea compound, preparation method therefor and medical use thereof” (Ancureall Pharmaceutical (Shanghai) Co., Ltd., priority 2016, dated 2020).
# Columns and labels:
# [1] = test system: MOLM-13 (FLT3 ITD+/− mutant type); experiment: In vitro growth inhibition (GI50), MOLM-13; assay type: cell-based, human; settings: Homo sapiens, MOLM-13; Cell lines of leukemia; read-out: GI 50 MOLM-13 FLT3 (ITD+/−)
# [2] = test system: HL-60 (FLT3 wild type); experiment: In vitro growth inhibition (GI50), HL-60; assay type: cell-based; settings: Homo sapiens, Cell lines of leukemia, read-out: GI 50 HL60 FLT3 (WT)
# Summary of the method: (§1)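 After 3–5 days of treatment (top concentration 5,000 nM, serially diluted 2- or 10-fold to 0.01 nM, solvent ≤1%), viability was read by CCK8 at OD450. Growth rate was normalised to the time-zero and solvent-control wells, and GI50 was derived from the curve. Cultures in RPMI1640 + 10% FBS.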
# [3] = test system: K562 (FLT3 negative expression, positive expression of BCR-ABL fusion protein); experiment: In vitro growth inhibition (GI50), K562; assay type: cell-based; settings: Homo sapiens, Cell lines of leukemia, read-out: GI 50 K562 BCR-ABL
# [4] = test system: RS4; 11 (FLT3 wild type); experiment: In vitro growth inhibition (GI50), RS4; 11; assay type: cell-based, human; settings: Homo sapiens, RS4-11; Cell lines of leukemia; read-out: GI 50 RS4: 11 FLT3 (WT)
# [5] = test system: Kasumi-1 (c-Kit N822K mutant type); experiment: In vitro growth inhibition (GI50), Kasumi-1; assay type: cell-based; settings: Homo sapiens, Cell lines of leukemia, read-out: GI 50 Kasumi-1 Kit (N822K)
# Summary of the method: as §1
# [6] = test system: U937 (FLT3 wild-type); experiment: In vitro growth inhibition (GI50), U937; assay type: cell-based; settings: Homo sapiens, U-937; Cell lines of leukemia; read-out: GI 50 U937 FLT 3(WT)
# [7] = test system: OCI-AML3 (NPMc+ mutant type); experiment: In vitro growth inhibition (GI50), OCI-AML3; assay type: cell-based; settings: Homo sapiens, OCI-AML-3; Cell lines of leukemia; read-out: GI 50 OCI- AML3 NPMc+
# [8] = test system: MV4-11 (FLT3 ITD+/+ mutant type); experiment: In vitro growth inhibition (GI50), MV4-11; assay type: cell-based, human; settings: Homo sapiens, MV4-11; Cell lines of leukemia; read-out: GI 50 MV4-11 FLT3 (ITD +/+)
# [9] = test system: RAMOS (positive expression of Brutons tyrosine protein kinase); experiment: In vitro growth inhibition (GI50), RAMOS; assay type: cell-based; settings: Homo sapiens, Cell lines of leukemia, read-out: GI 50 Ramos BTK
# [10] = test system: KG-1 (expressing FGFR1OP2-FGFR1 fusion protein); experiment: In vitro growth inhibition (GI50), KG-1; assay type: cell-based; settings: Homo sapiens; Cell lines of leukemia; read-out: GI 50 KG-1 FGFR1OP 2-FGFR1
Structure (SMILES),GI50 [1],GI50 [2],GI50 [3],GI50 [4],GI50 [6],GI50 [7],GI50 [8],GI50 [9],GI50 [5],GI50 [10]
"CC(C)(C)c1cc(NC(=O)Nc2ccc(-n3cnc4ccccc43)c(F)c2)no1 [Compound 39, 1-(4-benzimidazol-1-yl-3-fluoro-phenyl)-3-(5-tert-butyl-isoxazol-3-yl)-urea]",0.1 to 1 µM,> 1 µM,> 1 µM,> 1 µM,> 1 µM,> 1 µM,0.1 to 1 µM,> 1 µM,> 1 µM,> 1 µM
"O=C(Nc1ccc(-n2cnc3ccccc32)cc1)Nc1nccs1 [Compound 60, 1-(4-benzimidazol-1-yl-phenyl)-3-thiazol-2-yl-urea]",> 1 µM,> 1 µM,> 1 µM,> 1 µM,> 1 µM,> 1 µM,> 1 µM,> 1 µM,> 1 µM,0.1 to 1 µM
"CC(C)(C)c1cc(N)n(C(=O)Nc2ccc(-n3cnc4cc(F)ccc43)cc2)n1 [Compound 125, 5-amino-3-tert-butyl-pyrazol-1-carboxylic acid [4-(5-fluoro-benzimidazol-1-yl)-phenyl]-amide]",0.01 to 0.1 µM,> 1 µM,> 1 µM,> 1 µM,> 1 µM,> 1 µM,0.01 to 0.1 µM,> 1 µM,> 1 µM,> 1 µM
"CC(C)(C)c1cc(NC(=O)Nc2cc(F)c(-n3cnc4ccccc43)c(F)c2)no1 [Compound 40, 1-(4-benzimidazol-1-yl-3,5-difluoro-phenyl)-3-(5-tert-butyl-isoxazol-3-yl)-urea]",0.1 to 1 µM,> 1 µM,> 1 µM,> 1 µM,> 1 µM,> 1 µM,0.1 to 1 µM,> 1 µM,> 1 µM,> 1 µM
"Cc1nc2ccccc2n1-c1ccc(NC(=O)Nc2cc(C(C)(C)C)on2)cc1 [Compound 35, 1-(5-tert-butyl-isoxazol-3-yl)-3-[4-(2-methyl-benzimidazol-1-yl)-phenyl]-urea]",0.1 to 1 µM,> 1 µM,0.1 to 1 µM,0.1 to 1 µM,> 1 µM,> 1 µM,0.1 to 1 µM,> 1 µM,> 1 µM,> 1 µM
"CC(C)(C)c1cc(NC(=O)Nc2ccc(-n3cnc4cc(OCCCCc5nnnn5C5CCCCC5)ccc43)cc2)[nH]n1 [Compound 94, 1-(5-tert-butyl-2H-pyrazol-3-yl)-3-(4-{5-[4-(1-cyclohexyl-1H-tetrazol-5-yl)-butoxy]-benzimidazol-1-yl}-phenyl)-urea]",0.001 to 0.01 µM,> 1 µM,> 1 µM,> 1 µM,> 1 µM,> 1 µM,0.001 to 0.01 µM,> 1 µM,> 1 µM,> 1 µM
"CC(C)(C)c1cc(NC(=O)Nc2ccc(-n3cnc4cc(C(F)(F)F)ccc43)cc2)[nH]n1 [Compound 70, 1-(5-tert-butyl-2H-pyrazol-3-yl)-3-[4-(5-trifluoromethyl-benzimidazol-1-yl)-phenyl]-urea]",0.001 to 0.01 µM,> 1 µM,> 1 µM,> 1 µM,> 1 µM,> 1 µM,0.001 to 0.01 µM,> 1 µM,> 1 µM,> 1 µM
"COc1ncnc2ncn(-c3ccc(NC(=O)Nc4cc(C(C)(C)C)on4)cc3)c12 [Compound 57, 1-(5-tert-butyl-isoxazol-3-yl)-3-[4-(6-methoxyl-purin-7-yl)-phenyl]-urea]",0.01 to 0.1 µM,> 1 µM,> 1 µM,> 1 µM,> 1 µM,> 1 µM,0.01 to 0.1 µM,> 1 µM,> 1 µM,> 1 µM

# Now from value to molecule, other results behind:
GI50 [1],GI50 [2],GI50 [3],GI50 [4],GI50 [6],GI50 [7],GI50 [8],GI50 [9],Structure (SMILES),GI50 [5],GI50 [10]
0.0001 to 0.001 µM,> 1 µM,> 1 µM,> 1 µM,> 1 µM,> 1 µM,0.0001 to 0.001 µM,> 1 µM,"COc1cc2ncn(-c3ccc(NC(=O)Nc4cc(C(C)(C)C)n[nH]4)cc3)c2cc1OC [Compound 99, 1-(5-tert-butyl-2H-pyrazol-3-yl)-3-[4-(5,6-dimethoxyl-benzimidazol-1-yl)-phenyl]-urea]",> 1 µM,> 1 µM
0.0001 to 0.001 µM,> 1 µM,> 1 µM,> 1 µM,> 1 µM,> 1 µM,0.0001 to 0.001 µM,> 1 µM,"COCC(O)COc1ccc2c(c1)ncn2-c1ccc(NC(=O)Nc2cc(C(C)(C)C)n[nH]2)cc1 (stereo not shown) [Compound 80, 1-(5-tert-butyl-2H-pyrazol-3-yl)-3-{4-[5-(2-hydroxy-3-methoxyl-propoxyl)-benzimidazol-1-yl]-phenyl}-urea]",> 1 µM,> 1 µM
0.001 to 0.01 µM,> 1 µM,0.1 to 1 µM,0.1 to 1 µM,> 1 µM,> 1 µM,0.001 to 0.01 µM,> 1 µM,"CC(C)(C)c1cc(NC(=O)Nc2ccc(-n3cnc4cc(C(F)(F)F)ccc43)cc2)no1 [Compound 23, 1-(5-tert-butyl-isoxazol-3-yl)-3-[4-(5-trifluoromethyl-benzimidazol-1-yl)-phenyl]-urea]",> 1 µM,> 1 µM
0.0001 to 0.001 µM,> 1 µM,> 1 µM,> 1 µM,> 1 µM,> 1 µM,0.0001 to 0.001 µM,> 1 µM,"CC(C)(C)c1cc(NC(=O)Nc2ccc(-n3cnc4cc(OC(F)(F)F)ccc43)cc2)[nH]n1 [Compound 84, 1-(5-tert-butyl-2H-pyrazol-3-yl)-3-[4-(5-trifluoromethoxy-benzimidazol-1-yl)-phenyl]-urea]",> 1 µM,> 1 µM
0.0001 to 0.001 µM,> 1 µM,> 1 µM,> 1 µM,> 1 µM,> 1 µM,0.0001 to 0.001 µM,> 1 µM,"CC(C)Oc1ccc2c(c1)ncn2-c1ccc(NC(=O)Nc2cc(C(C)(C)C)on2)cc1 [Compound 8, 1-(5-tert-butyl-isoxazol-3-yl)-3-[4-(5-isopropoxy-benzimidazol-1-yl)-phenyl]-urea]",> 1 µM,> 1 µM
0.001 to 0.01 µM,> 1 µM,> 1 µM,> 1 µM,> 1 µM,> 1 µM,0.001 to 0.01 µM,> 1 µM,"CC(C)(C)c1cc(NC(=O)Nc2ccc(-n3cnc4cc(Oc5nsnc5N5CCOCC5)ccc43)cc2)[nH]n1 [Compound 95, 1-(5-tert-butyl-2H-pyrazol-3-yl)-3-{4-[5-(4-morpholin-4-yl-[1,2,5]thiadiazol-3-yloxy)-benzimidazol-1-yl]-phenyl}-urea]",> 1 µM,> 1 µM
0.001 to 0.01 µM,> 1 µM,> 1 µM,> 1 µM,> 1 µM,> 1 µM,0.001 to 0.01 µM,> 1 µM,"CC(C)(C)c1cc(NC(=O)Nc2ccc(-n3cnc4cc(Br)cnc43)cc2)no1 [Compound 51, 1-[4-(6-bromo-imidazo[4,5-b]pyridin-3-yl)-phenyl]-3-(5-tert-butyl-isoxazol-3-yl)-urea]",> 1 µM,> 1 µM
0.0001 to 0.001 µM,0.1 to 1 µM,> 1 µM,> 1 µM,0.1 to 1 µM,> 1 µM,0.0001 to 0.001 µM,0.1 to 1 µM,"CCCCN(CCCC)CCCOc1ccc2c(c1)ncn2-c1ccc(NC(=O)Nc2cc(C(C)(C)C)n[nH]2)cc1 [Compound 82, 1-(5-tert-butyl-2H-pyrazol-3-yl)-3-{4-[5-(3-dibutylaminopropoxy)-benzimidazol-1-yl]-phenyl}-urea]",> 1 µM,> 1 µM
